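Five concentrations, 48 hours, 96-well plates. GI50 = concentration required for 50% inhibition of growth. TGI marks complete inhibition of growth.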
What was measured:
Experiment in all cases: NCI tumour cell line growth inhibition, 48 h
786-0 renal = system: 786-0 renal
A498 renal = system: A498 renal
A549 NSCLC = system: A549 NSCLC
ACHN renal = system: ACHN renal
BT-549 breast = system: BT-549 breast
CAKI-1 renal = system: CAKI-1 renal
CCRF-CEM leukemia = system: CCRF-CEM leukemia
COLO 205 colon = system: COLO 205 colon
DU-145 prostate = system: DU-145 prostate
EKVX NSCLC = system: EKVX NSCLC
HCC-2998 colon = system: HCC-2998 colon
HCT-116 colon = system: HCT-116 colon
HCT-15 colon = system: HCT-15 colon
HL-60(TB) leukemia = system: HL-60(TB) leukemia
HOP-62 NSCLC = system: HOP-62 NSCLC
HOP-92 NSCLC = system: HOP-92 NSCLC
HS 578T breast = system: HS 578T breast
HT29 colon = system: HT29 colon
IGROV1 ovarian = system: IGROV1 ovarian
K-562 leukemia = system: K-562 leukemia
KM12 colon = system: KM12 colon
LOX IMVI melanoma = system: LOX IMVI melanoma
M14 melanoma = system: M14 melanoma
MALME-3M melanoma = system: MALME-3M melanoma
MCF7 breast = system: MCF7 breast
MDA-MB-231 breast = system: MDA-MB-231 breast
MDA-MB-435 = system: MDA-MB-435
MOLT-4 leukemia = system: MOLT-4 leukemia
NCI-H226 lung = system: NCI-H226 lung
NCI-H23 lung = system: NCI-H23 lung
NCI-H460 lung = system: NCI-H460 lung
NCI-H522 lung = system: NCI-H522 lung
NCI/ADR-RES ovarian = system: NCI/ADR-RES ovarian
OVCAR-3 ovarian = system: OVCAR-3 ovarian
OVCAR-4 ovarian = system: OVCAR-4 ovarian
OVCAR-5 ovarian = system: OVCAR-5 ovarian
OVCAR-8 ovarian = system: OVCAR-8 ovarian
PC-3 prostate = system: PC-3 prostate
RPMI-8226 leukemia = system: RPMI-8226 leukemia
RXF 393 renal = system: RXF 393 renal
SF-268 CNS = system: SF-268 CNS
SF-295 CNS = system: SF-295 CNS
SF-539 CNS = system: SF-539 CNS
SK-MEL-2 melanoma = system: SK-MEL-2 melanoma
SK-MEL-28 melanoma = system: SK-MEL-28 melanoma
SK-MEL-5 melanoma = system: SK-MEL-5 melanoma
SK-OV-3 ovarian = system: SK-OV-3 ovarian
SN12C renal = system: SN12C renal
SNB-19 CNS = system: SNB-19 CNS
SNB-75 CNS = system: SNB-75 CNS
SR leukemia = system: SR leukemia
SW-620 colon = system: SW-620 colon
T-47D breast = system: T-47D breast
TK-10 renal = system: TK-10 renal
U251 CNS = system: U251 CNS
UACC-257 melanoma = system: UACC-257 melanoma
UACC-62 melanoma = system: UACC-62 melanoma
UO-31 renal = system: UO-31 renal

## COc1ccc(C2C(C#N)=C(/N=C/c3ccc(Cl)cc3)Oc3c2sc2c(C)cccc32)cc1 (stereo not given)
786-0 renal
  GI50: 4.34 µM
  TGI: 28.2 µM
A498 renal
  GI50: 12.6 µM
  TGI: 27.5 µM
A549 NSCLC
  GI50: 2.22 µM
  TGI: 28.9 µM
ACHN renal
  GI50: 3.94 µM
  TGI: 17.8 µM
BT-549 breast
  GI50: 1.21 µM
  TGI: 18.8 µM
CAKI-1 renal
  GI50: 4.03 µM
  TGI: 22.3 µM
CCRF-CEM leukemia
  GI50: 3.01 µM
  TGI: > 100 µM
COLO 205 colon
  GI50: 2.59 µM
  TGI: 6.96 µM
DU-145 prostate
  GI50: 3.2 µM
  TGI: 14 µM
EKVX NSCLC
  GI50: 3.87 µM
  TGI: 17.3 µM
HCC-2998 colon
  GI50: 1.91 µM
  TGI: 5.99 µM
HCT-116 colon
  GI50: 1.55 µM
  TGI: 13.4 µM
HCT-15 colon
  GI50: 0.731 µM
  TGI: 10.5 µM
HL-60(TB) leukemia
  GI50: 0.433 µM
  TGI: 2.94 µM
HOP-62 NSCLC
  GI50: 4.07 µM
  TGI: 19.7 µM
HOP-92 NSCLC
  GI50: 1.69 µM
  TGI: 18.1 µM
HS 578T breast
  GI50: 2.44 µM
  TGI: 19.1 µM
HT29 colon
  GI50: 2.76 µM
  TGI: 8.76 µM
IGROV1 ovarian
  GI50: 2.27 µM
  TGI: 17.4 µM
K-562 leukemia
  GI50: 0.404 µM
  TGI: > 100 µM
KM12 colon
  GI50: 1.4 µM
  TGI: 12.6 µM
LOX IMVI melanoma
  GI50: 1.89 µM
  TGI: 13.4 µM
M14 melanoma
  GI50: 1.59 µM
  TGI: 10.8 µM
MALME-3M melanoma
  GI50: 2.28 µM
  TGI: 19.8 µM
MCF7 breast
  GI50: 0.549 µM
  TGI: 21.4 µM
MDA-MB-231 breast
  GI50: 2.73 µM
  TGI: 13.8 µM
MDA-MB-435
  GI50: 0.312 µM
  TGI: 0.993 µM
MOLT-4 leukemia
  GI50: 3.37 µM
  TGI: 28.7 µM
NCI-H226 lung
  GI50: 6.02 µM
  TGI: 24.3 µM
NCI-H23 lung
  GI50: 2.34 µM
  TGI: 12.6 µM
NCI-H460 lung
  GI50: 1.71 µM
  TGI: 12.8 µM
NCI-H522 lung
  GI50: 0.247 µM
  TGI: 0.858 µM
NCI/ADR-RES ovarian
  GI50: 0.668 µM
  TGI: 4.49 µM
OVCAR-3 ovarian
  GI50: 0.753 µM
  TGI: 3.69 µM
OVCAR-4 ovarian
  GI50: 3.4 µM
  TGI: 25.9 µM
OVCAR-5 ovarian
  GI50: 2.81 µM
  TGI: 12.4 µM
OVCAR-8 ovarian
  GI50: 2.87 µM
  TGI: 11.4 µM
PC-3 prostate
  GI50: 2.01 µM
  TGI: 18.1 µM
RPMI-8226 leukemia
  GI50: 3.21 µM
  TGI: 18.5 µM
RXF 393 renal
  GI50: 2.12 µM
  TGI: 10.5 µM
SF-268 CNS
  GI50: 4.28 µM
  TGI: 21.2 µM
SF-295 CNS
  GI50: 1.19 µM
  TGI: 10.3 µM
SF-539 CNS
  GI50: 1.31 µM
  TGI: 3.54 µM
SK-MEL-2 melanoma
  GI50: 2.17 µM
  TGI: 13 µM
SK-MEL-28 melanoma
  GI50: 1.51 µM
  TGI: 18.8 µM
SK-MEL-5 melanoma
  GI50: 1.44 µM
  TGI: 13.1 µM
SK-OV-3 ovarian
  GI50: 3.12 µM
  TGI: 17.5 µM
SN12C renal
  GI50: 2.79 µM
  TGI: 12.7 µM
SNB-19 CNS
  GI50: 3.57 µM
  TGI: 16.7 µM
SNB-75 CNS
  GI50: 3.08 µM
  TGI: 23.2 µM
SR leukemia
  GI50: 0.413 µM
  TGI: 20.6 µM
SW-620 colon
  GI50: 1.11 µM
  TGI: 16.3 µM
T-47D breast
  GI50: 1.77 µM
  TGI: 23.1 µM
TK-10 renal
  GI50: 12.5 µM
  TGI: 37.1 µM
U251 CNS
  GI50: 2.96 µM
  TGI: 14 µM
UACC-257 melanoma
  GI50: 12.3 µM
  TGI: 31.5 µM
UACC-62 melanoma
  GI50: 0.515 µM
  TGI: 10.2 µM
UO-31 renal
  GI50: 1.97 µM
  TGI: 16 µM

## Cc1ccc(NC(=O)Nc2nc3ccc([N+](=O)[O-])cc3s2)cc1
786-0 renal
  GI50: 2.89 µM
  TGI: 12.4 µM
A498 renal
  GI50: 1.41 µM
  TGI: 4.38 µM
A549 NSCLC
  GI50: 2.79 µM
  TGI: 10.5 µM
ACHN renal
  GI50: 2.78 µM
  TGI: 11.4 µM
BT-549 breast
  GI50: 2.02 µM
  TGI: 5.88 µM
CAKI-1 renal
  GI50: 1.79 µM
  TGI: 6.23 µM
CCRF-CEM leukemia
  GI50: 2.13 µM
  TGI: 7.71 µM
COLO 205 colon
  GI50: 1.91 µM
  TGI: 3.84 µM
DU-145 prostate
  GI50: 3.26 µM
  TGI: 11.7 µM
EKVX NSCLC
  GI50: 2.75 µM
  TGI: 10.9 µM
HCC-2998 colon
  GI50: 2.6 µM
  TGI: 10.1 µM
HCT-116 colon
  GI50: 1.79 µM
  TGI: 5.22 µM
HCT-15 colon
  GI50: 2.37 µM
  TGI: 9.19 µM
HOP-62 NSCLC
  GI50: 3.1 µM
  TGI: 10.7 µM
HOP-92 NSCLC
  GI50: 1.37 µM
  TGI: 5.44 µM
HS 578T breast
  GI50: 3.02 µM
  TGI: 13.9 µM
HT29 colon
  GI50: 3.28 µM
  TGI: 11.6 µM
IGROV1 ovarian
  GI50: 3.59 µM
  TGI: 14.3 µM
K-562 leukemia
  GI50: 1.44 µM
  TGI: 9.56 µM
KM12 colon
  GI50: 2.45 µM
  TGI: 8.15 µM
LOX IMVI melanoma
  GI50: 2.36 µM
  TGI: 5.96 µM
M14 melanoma
  GI50: 2.92 µM
  TGI: 10.6 µM
MALME-3M melanoma
  GI50: 2.66 µM
  TGI: 7.71 µM
MCF7 breast
  GI50: 1.99 µM
  TGI: 7.77 µM
MDA-MB-231 breast
  GI50: 3.04 µM
  TGI: 10.3 µM
MDA-MB-435
  GI50: 2.32 µM
  TGI: 9.33 µM
MOLT-4 leukemia
  GI50: 2.09 µM
  TGI: 6.33 µM
NCI-H226 lung
  GI50: 2.75 µM
  TGI: 12.3 µM
NCI-H23 lung
  GI50: 1.89 µM
  TGI: 6.78 µM
NCI-H460 lung
  GI50: 2.84 µM
  TGI: 10.4 µM
NCI-H522 lung
  GI50: 1.14 µM
  TGI: 5.21 µM
NCI/ADR-RES ovarian
  GI50: 2.5 µM
  TGI: 7.79 µM
OVCAR-3 ovarian
  GI50: 2.43 µM
  TGI: 9.63 µM
OVCAR-4 ovarian
  GI50: 1.41 µM
  TGI: 9.32 µM
OVCAR-5 ovarian
  GI50: 4.32 µM
  TGI: 18.3 µM
OVCAR-8 ovarian
  GI50: 3.2 µM
  TGI: 14 µM
PC-3 prostate
  GI50: 2.14 µM
  TGI: 8.83 µM
RPMI-8226 leukemia
  GI50: 1.26 µM
  TGI: 3.77 µM
RXF 393 renal
  GI50: 2.01 µM
  TGI: 5.75 µM
SF-268 CNS
  GI50: 3.52 µM
  TGI: 16 µM
SF-295 CNS
  GI50: 1.92 µM
  TGI: 5.21 µM
SF-539 CNS
  GI50: 3.15 µM
  TGI: 10.4 µM
SK-MEL-2 melanoma
  GI50: 2.19 µM
  TGI: 6.03 µM
SK-MEL-28 melanoma
  GI50: 3.1 µM
  TGI: 15.1 µM
SK-MEL-5 melanoma
  GI50: 1.42 µM
  TGI: 3.51 µM
SK-OV-3 ovarian
  GI50: 2.91 µM
  TGI: 10.1 µM
SN12C renal
  GI50: 2.54 µM
  TGI: 12.5 µM
SNB-19 CNS
  GI50: 2.7 µM
  TGI: 13.4 µM
SNB-75 CNS
  GI50: 1.95 µM
  TGI: 6.27 µM
SR leukemia
  GI50: 1.29 µM
  TGI: 5.06 µM
SW-620 colon
  GI50: 2.93 µM
  TGI: 10.7 µM
T-47D breast
  GI50: 0.799 µM
  TGI: 6.4 µM
TK-10 renal
  GI50: 2.94 µM
  TGI: 11.6 µM
U251 CNS
  GI50: 2.34 µM
  TGI: 10.9 µM
UACC-257 melanoma
  GI50: 1.82 µM
  TGI: 6.78 µM
UACC-62 melanoma
  GI50: 2.77 µM
  TGI: 13.7 µM
UO-31 renal
  GI50: 2.51 µM
  TGI: 10.5 µM
